The NIST ThermoML archive (doi:10.1016/j.tca.2014.01.028)
Numbers after ± are expanded uncertainties.

Experiments:
[1] = Crystal; DTA
[2] = Molar enthalpy of transition or fusion; conditions: Crystal; DSC

Question: What does the source list for O=C(c1ccccc1)C(C(=O)c1ccccc1)[C@H](C[N+](=O)[O-])c1ccccc1?
Answer: Normal melting temperature [1]: 135.60 ± 0.5 °C; Molar enthalpy of transition or fusion [2]: 32 ± 0.91 kJ/mol
